One series concerns S. pneumoniae serotype 8. The series can be described thus: MIC assays under standard conditions. As to conditions: Supplementary Table 1; cation-adjusted MHB + 5% lysed horse blood, 5% CO2, 20–24 h. Format: cell-based, Streptococcus pneumoniae. The gist of the method: (§1)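 Broth microdilution in cation-adjusted MHB, inoculum from OD600 0.5 TSB culture diluted 100-fold, 37 °C with shaking. Streptococci: 5% lysed horse blood, 5% CO2, MIC read visually at 20–24 h; S. simulans read at 16–20 h.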

A further series has as its system S. pneumoniae ATCC6305. Kind of series: MIC assays under standard conditions. Format: cell-based, Streptococcus pneumoniae. Conditions: Supplementary Table 1; cation-adjusted MHB + 5% lysed horse blood, 5% CO2, 20–24 h. In outline: as §1
Series [1] in a line: HS-AFM oligomerization on supported lipid bilayers doped with lipid II. Conditions: DOPC/DOPG (1:1), 1% lipid II, 1 mM Ca^2+.
Experimental: HS-AFM imaging was performed on a supported lipid bilayer deposited on mica using an amplitude modulation tapping mode HS-AFM from RIBM (Ando type)[11]. The lipid compositions are as stated in the experimental conditions of the corresponding results. Short cantilevers (∼7 μm) with a nominal spring constant of 0.15 N m^−1 were used (USC-F1.2-k0.15, NanoWorld) for all experiments. A minimal imaging force was applied by using a small set-point amplitude, typically 80% of the free amplitude (for 1–2 nm of free amplitude). […] Imaging was started on the lipid bilayer surface in recording buffer. […] All reported experiments were repeated for at least three times for each condition. Image analysis was done using Igor Pro version 6.22 (Wavemetrics) with RIBM script and ImageJ version 1.501 with minimal image corrections (tilt, drift and background corrections). The time stamps on HS-AFM videos are relative to plectasin addition into the liquid chamber. Image acquisition rate varied from 0.5 frames per second to 2 frames per second (see the figure/video legends).
Series [2] in a line: Confocal microscopy of GUVs doped with Und-NBD-lipid II. As to conditions: GUVs 0.4 mol% Und-NBD-LII in DOPC, 1 μM antibiotic. The protocol: GUVs were prepared by electroformation using in-house build Teflon cells with two titanium wires as electrodes. About 1 μl of 0.5 mM DOPC with 0.4 mol% NBD–lipid II in 2:1 CHCl3/MeOH was brushed on both electrodes and thoroughly dried under vacuum. Next, the cell was filled with 350 μl 300 mM sucrose, and GUVs were formed by applying an oscillating voltage (sine wave, 2 V, 10 Hz) for 90 min and released from the electrodes (square wave, 2 V, 2 Hz). Microscopy slides were precoated using a 1 mg ml^−1 BSA solution. Slides were filled with 300 μl 300 mM glucose solution, followed by addition of the antibiotic and finally 30–50 μl GUV solution. The GUVs were imaged using a Zeiss LSM 880 confocal microscope with a ×63/1.2NA glycerol objective lens. Green fluorescence (530–545 nm) was detected after excitation with a 488 nm laser.

In another series the test system is S. simulans 22. Kind of series: MIC assays under standard conditions. The series is classed as cell-based, Staphylococcus simulans. In outline:
as §1

The test system of the next series is mammalian cells. As to conditions: cited from earlier work.
The nature of series [3]: ITC of bivalent cation binding to plectasin in solution. Conditions: mean of duplicate, read-out: Kd, Mg^2+ binding to plectasin (ITC).
Series [4] can be described thus: Tryptophan fluorescence spectroscopy, lipid II binding affinity. Here is the method:
Plectasin’s single tryptophan can be used to monitor insertion into the membrane. Measurements were done on a Cary Eclipse (FL0904M005) fluorimeter at 20 °C under constant stirring in a 4 × 10 mm quartz cuvette. For titration experiments, the cuvette was oriented perpendicular to the excitation beam to minimize scattering. LUVs with or without 2 mol% lipid II (prepared as described above at 1–5 mM total lipid concentration) were titrated to 100 nM plectasin in 50 mM HEPES, 150 mM NaCl at pH = 7.2. Fluorescence was excited at 280 nm (5 nm slit) and recorded between 300 and 400 nm (10 nm slit) at 1 nm intervals with 1 s averaging per point. Spectra were corrected for a blank using buffer and for scattering using a titration series in the absence of plectasin. Corrected spectra were fit with log-normal distributions, and the shift of the resulting wavelength of maximum fluorescence (Δλmax) as a function of lipid II concentration on the outside of the vesicles was fit using a quadratic binding equation[54] to obtain the binding affinities.

The nature of series [5]: ITC of bivalent cation binding to plectasin in solution. As to conditions: mean of duplicate, read-out: Kd, Ca^2+ binding to plectasin (ITC).
For another series, the system named is S. pyogenes M3. The series can be described thus: MIC assays under standard conditions. Format: cell-based, Streptococcus pyogenes. Conditions: Supplementary Table 1; cation-adjusted MHB + 5% lysed horse blood, 5% CO2, 20–24 h. Here is the method:
Plectasin and analogues were serially diluted in cation-adjusted Mueller–Hinton broth (MHB) in round-bottom polypropylene 96-well plates (50 µl per well). Selected bacterial strains were grown from glycerol stocks on blood agar plates. Individual colonies were inoculated in TSB and incubated at 37 °C while shaking until OD600 reached 0.5. Bacterial suspensions were then diluted 100 times in cation-adjusted MHB and distributed (50 μl per well) over the microplate containing the diluted plectasin solutions. Plates were covered by a gas-permeable adhesive membrane and incubated at 37 °C while shaking. MICs were determined by visual inspection after 16–20 h (Staphylococcus) or 20–24 h (Streptococcus). For Streptococcus strains, the broth was additionally supplemented with 5% lysed horse blood, and the microplates were incubated under 5% CO2 atmosphere. In the assays, we used the following strains: S. simulans, S. pneumoniae serotype 8, S. pneumoniae ATCC6305 and Streptococcus pyogenes M3.

Series [6] is described as follows: Carboxyfluorescein leakage from LUVs. Here is the method:
Vesicle leakage assays were conducted using LUVs filled with carboxyfluorescein. Carboxyfluorescein solutions were made by suspending ~50 mM carboxyfluorescein in H2O and adjusting the pH to ~7.2 using 10 M NaOH. The resulting solution was diluted with H2O to match the osmolarity of the outside buffer, which consisted of 10 mM Tris and 100 mM NaCl, at pH = 7.2. LUVs were prepared as described above. Non-enclosed carboxyfluorescein was removed using a Sephadex G50 column equilibrated in outside buffer. Measurements were conducted on a Cary Eclipse spectrophotometer at 20 °C under constant stirring by monitoring the fluorescence intensity at 515 nm (excitation at 492 nm, 5 nm slit width, 0.1 s averaging time). A total lipid concentration of 25 µM was used for all experiments. Fluorescence traces were normalized using the fluorescence baseline at the start as 0% and fluorescence after treatment with 0.1 vol% Triton-X100 as 100%.

The next series relates to S. simulans. Kind of series: DPH anisotropy membrane fluidity measurements. The series is classed as cell-based, Staphylococcus simulans. Conditions: intact S. simulans cells, 1 µM plectasin, 37 °C, biological triplicates. Here is the method: Preparation of S. simulans stock solutions was done as described above for bacterial permeabilization in PBS. About 1 ml of a cell suspension of OD600 = 0.1 in PBS was treated with 1 µM plectasin and incubated at 37 °C. All assays were performed on a Cary Eclipse (FL0904M005) fluorometer fitted with a manual polarizer accessory (Varian). Measurements were conducted at 37 °C under constant stirring in a 4 × 10 mm quartz cuvette. About 10 µM DPH was added from a 1 mM stock in dimethyl sulfoxide (bringing the final dimethyl sulfoxide concentration to 1 vol%) and incubated for 5 min. Fluorescence was excited with 380 nm light (10 nm slit) and recorded between 430 and 520 nm (10 nm slit) with 0.5 s averaging time and data interval of 1.66 nm per point. Fluorescence anisotropy was calculated using the maximum intensity of each spectrum according to the following equation (where IVV and IVH represent the fluorescence intensity using parallel and orthogonal excitation and emission polarization filters, respectively): r=IVV−IVH/IVV+2IVH

The structures appear in SMILES notation. ≈ marks a conversion by molar mass, not a printed value.

In the case of `CC[C@H](C)[C@@H]1NC(=O)[C@H](CO)NC(=O)[C@H](CCCCN)NC(=O)[C@@H]2CSSC[C@@H](C(=O)N[C@@H](Cc3ccc(O)cc3)C(=O)O)NC(=O)[C@H](CCCCN)NC(=O)[C@@H]3CSSC[C@H](NC(=O)[C@H](CCC(N)=O)NC(=O)[C@H](CCSC)NC(=O)[C@H](CC(=O)O)NC(=O)[C@H](CC(=O)O)NC(=O)[C@H](CCC(=O)O)NC(=O)[C@H](CC(=O)O)NC(=O)[C@H](Cc4c[nH]c5ccccc45)NC(=O)[C@@H]4CCCN4C(=O)CNC(=O)[C@H](CC(N)=O)NC(=O)[C@@H](NC(=O)CNC(=O)[C@H](Cc4ccccc4)NC(=O)CN)CSSC[C@H](NC(=O)[C@H](Cc4ccc(O)cc4)NC(=O)CNC(=O)CNC(=O)[C@H](CCCCN)NC(=O)[C@H](Cc4ccc(O)cc4)NC(=O)CNC(=O)[C@H](CCCCN)NC1=O)C(=O)N[C@@H](C)C(=O)N[C@@H](CCCCN)C(=O)NCC(=O)NCC(=O)N[C@@H](Cc1ccccc1)C(=O)N[C@@H](C(C)C)C(=O)N3)C(=O)N[C@@H](Cc1c[nH]cn1)C(=O)N[C@@H](CC(N)=O)C(=O)N[C@@H](Cc1c[nH]cn1)C(=O)N2` [Plectasin wt], in the series with S. pneumoniae serotype 8, the “Minimum inhibitory concentration, S. pneumoniae serotype 8” value is recorded as 1,56 μg/mL. The “Minimum inhibitory concentration, S. pneumoniae ATCC6305” value in the series on S. pneumoniae ATCC6305 is at most 0.78 µg/mL. Further, the “plectasin concentration giving full coverage (AFM)” value in series [1] amounted to 400 nM. In series [1], the “plectasin concentration giving partial coverage (AFM)” value is on record as 300 nM. In addition, the “plectasin concentration above which supra-structures emerge (AFM)” value in series [1] (10 min after addition) was above 200 nM. In addition, the “lipid II cluster/domain formation on GUVs” value in series [2] was “cluster formation”. The “Minimum inhibitory concentration, S. simulans” value with S. simulans 22 (Supplementary Table 1, cation-adjusted MHB, 37 °C, 16–20 h) was 0,78 μg/mL. Moreover, the “MIC expressed as plectasin concentration” value with S. simulans 22 (corresponding to 0.78 µg ml^−1) is 0.177 µM (≈ 0.779 µg/mL). Moreover, in the series on mammalian cells, the “toxicity against mammalian cells” value is “lack of plectasin toxicity against mammalian cells”. For the same compound, the Kd in series [3] came out at 0.195 ± 0.035 µM; in series [4] (DOPC liposomes, 1 mM Mg^2+), 0.08 µM; in series [4] (DOPC liposomes, without bivalent ions (100 μM EDTA)), 0.155 µM; in series [4] (anionic DOPC/DOPG (1:1) liposomes, 1 mM Ca^2+) it was 0.001 µM; in [4] (anionic DOPC/DOPG (1:1) liposomes, 1 mM Mg^2+) it was 0.004 µM; in series [4] (anionic DOPC/DOPG (1:1) liposomes, without bivalent ions (100 μM EDTA)), 0.027 µM. In addition, the Kd is 0.001 µM in series [4] (zwitterionic DOPC liposomes, 2 mol% lipid II, 1 mM Ca^2+, 100 nM plectasin, HEPES pH 7.2, 20 °C) and 0.159 ± 0.069 µM in series [5]. Moreover, the “lipid II binding affinity increase in the presence of Ca^2+” value in series [4] (neutral DOPC liposomes, with Ca^2+ vs without bivalent ions) was above 100 fold. Also, in the series with S. pyogenes M3, the “Minimum inhibitory concentration, S. pyogenes M3” value is ≤ 0,012 μg/mL. Moreover, the “carboxyfluorescein leakage (in words)” value in [6] (DOPC Lipid II vesicles, in the presence of calcium) is “efficiently permeabilized”; in series [6] (phospholipids native to gram-positive bacteria included in the membrane, with calcium), “virtually no leakage”. The “DPH fluorescence anisotropy (membrane fluidity)” value with S. simulans is on record as “decrease in the fluorescence anisotropy”.
